Measured values: patent US12653191B2, “Active compound combinations” (Bayer Aktiengesellschaft, priority 2020, dated 2026)
“And” between values parts separate entries of the source, which are not always exact repeats. Equal entries are not always repeated. Where two headings read alike, the source gives them in different places.

How the values were obtained:
Cercospora beticola [1] = experiment: in vitro-Test with fungal microorganisms, Method B (tables C11-C20); assay type: cell-based
Method: (§1) Example: In Vitro-Test with Fungal Microorganisms
(§2) Wells of 96-well microtiter plates are filled with 30 μl of a preparation of test compound or compound combination in methanol+emulsifier alkylaryl-polyglycol-ether. Thereafter, the solvent is evaporated in a hood. At the next step, 200 μl of liquid growth medium is given, that has been amended with an appropriate concentration of spores or mycelium suspension of the test fungus.
(§3) With the aid of a photometer, the extinction in all wells is measured at the wavelength of 600 nm.
(§4) The microtiter plates are incubated for 3 to 7 days at 20° C. and 85% relative humidity. After the incubation inhibition of growth is determined photometrically. Efficacy is calculated in relation to the untreated control, 0% efficacy means fungal growth as high as in untreated control while 100% efficacy means no fungal growth is measured.
(§5) The data in tables A1 to A12, B1 to B14, C1 to C10, D1 to D8, E1 to E8, F1 to F11, G1 to G4, H1 to H4 and I1 to I5 were collected according to Method A. The data in tables A13 to A22, B15 to B18, C11 to C20, E9 to E16, F12 to F15, G5 to G15, H5 to H8, I6 to I11 and J1 to J11 were collected according to Method B.

Botrytis cinerea = experiment: in vitro-Test with fungal microorganisms, Method A (tables B1-B14); assay type: cell-based; conditions: alone
Method: as §1
as §2, with “10” for “30”, “100” for “200”, “potato dextrose” for “growth”, “given into each well,” for “given,”
(§6) With the aid of a photometer, the extinction in all wells is measured at the wavelength of 620 nm.
as §4, with “incubated” for “incubated for 3 to 7 days”, “The” for “After the incubation”, “again photometrically 3-5 days after the application.” for “photometrically.”
as §5

Colletotrichum coccodes = experiment: in vitro-Test with fungal microorganisms, Method B (tables J1-J11); assay type: cell-based
Method: as §1, §2, §3, §4, §5

Fusarium culmorum = experiment: in vitro-Test with fungal microorganisms, Method B (tables G5-G15); assay type: cell-based
Method: as §1, §2, §3, §4, §5

Cordana musae [2] = experiment: in vitro-Test with fungal microorganisms, Method B (tables E9-E16); assay type: cell-based; conditions: single active
Method: as §1, §2, §3, §4, §5

Alternaria alternata = experiment: in vitro-Test with fungal microorganisms, Method B (tables A13-A22); assay type: cell-based; conditions: Alternaria alternata, single compound, read-out: Efficacy
Method: as §1, §2, §3, §4, §5

Cercospora beticola [3] = experiment: in vitro-Test with fungal microorganisms, Method A (tables C1-C10); assay type: cell-based
Method: as §1
as §2, with “10” for “30”, “100” for “200”, “potato dextrose” for “growth”, “given into each well,” for “given,”
as §6
as §4, with “incubated” for “incubated for 3 to 7 days”, “The” for “After the incubation”, “again photometrically 3-5 days after the application.” for “photometrically.”
as §5

Alternaria alternate = experiment: in vitro-Test with fungal microorganisms, Method A (tables A1-A12); assay type: cell-based, Alternaria alternata; conditions: Alternaria, applied alone, read-out: Efficacy %
Method: as §1
as §2, with “10” for “30”, “100” for “200”, “potato dextrose” for “growth”, “given into each well,” for “given,”
as §6
as §4, with “incubated” for “incubated for 3 to 7 days”, “The” for “After the incubation”, “again photometrically 3-5 days after the application.” for “photometrically.”
as §5

Diaporthe citri = experiment: in vitro-Test with fungal microorganisms, Method A (tables F1-F11); assay type: cell-based; conditions: Diaporthe citri, applied alone, read-out: Efficacy
Method: as §1
as §2, with “10” for “30”, “100” for “200”, “potato dextrose” for “growth”, “given into each well,” for “given,”
as §6
as §4, with “incubated” for “incubated for 3 to 7 days”, “The” for “After the incubation”, “again photometrically 3-5 days after the application.” for “photometrically.”
as §5

Cordana musae [4] = experiment: in vitro-Test with fungal microorganisms, Method A (tables E1-E8); assay type: cell-based; conditions: Neocordana musae, single substance, read-out: Efficacy %
Method: as §1
as §2, with “10” for “30”, “100” for “200”, “potato dextrose” for “growth”, “given into each well,” for “given,”
as §6
as §4, with “incubated” for “incubated for 3 to 7 days”, “The” for “After the incubation”, “again photometrically 3-5 days after the application.” for “photometrically.”
as §5

[5] = tested on: Colletotrichum lindemuthianum; experiment: in vitro-Test with fungal microorganisms, Method A (tables D1-D8); assay type: cell-based; conditions: Colletotrichum lindemuthianum, mixing partner alone, read-out: Efficacy %
Method: as §1
as §2, with “10” for “30”, “100” for “200”, “potato dextrose” for “growth”, “given into each well,” for “given,”
as §6
as §4, with “incubated” for “incubated for 3 to 7 days”, “The” for “After the incubation”, “again photometrically 3-5 days after the application.” for “photometrically.”
as §5

[6] = tested on: Ustilago segetum var. avenae; experiment: in vitro-Test with fungal microorganisms, Method B (tables I6-I11); assay type: cell-based
Method: as §1, §2, §3, §4, §5

[7] = single active compound at 4 ppm
[8] = Cercospora beticola, read-out: Efficacy %
[9] = Cercospora beticola, single compound, read-out: Efficacy %
[10] = Fusarium culmorum, alone, read-out: Efficacy
[11] = Fusarium culmorum, single active compound, read-out: Efficacy

Fc1ccc(Oc2ccnc3cc(Cl)cc(Cl)c23)cc1 [(13.005) quinoxifen]
Efficacy % (Cercospora beticola [1]; single compound, 0.08 ppm): 3%

CCO[PH](=O)[O-].CCO[PH](=O)[O-].CCO[PH](=O)[O-].[Al+3] [(15.012) fosetylaluminium]
Efficacy % (Botrytis cinerea; 0.8 ppm): 0% | Efficacy % (Botrytis cinerea; 4.0 ppm): 13% | Efficacy % (Botrytis cinerea; 100.0 ppm): 1%

CS(=O)(=O)Oc1cccc(Cl)c1C1CC(c2csc(C3CCN(C(=O)Cn4nc(C(F)F)cc4C(F)F)CC3)n2)=NO1 (stereo not drawn) [(15.043) fluoxapiprolin, fluoxa-piprolin]
Efficacy % (Cercospora beticola [1]; single compound, 0.8 ppm): 0% | Efficacy % (Cercospora beticola [1]; single compound, 4 ppm): 3% and 0% | Efficacy % (Cercospora beticola [1]; single compound, 20 ppm): 0% | Efficacy % (Colletotrichum coccodes; 0.8 ppm): 0% | Efficacy % (Colletotrichum coccodes; 20 ppm): 0% | Efficacy % (Colletotrichum coccodes; [7]): 0% and 2% | Efficacy (Fusarium culmorum; single active compound, 0.8 ppm): 13% | Efficacy (Fusarium culmorum; single active compound, 4 ppm): 14% | Efficacy (Cordana musae [2]; 20 ppm): 0%

OC(Cc1ccccc1Cl)(Cn1nc[nH]c1=S)C1(Cl)CC1 (stereo not drawn) [(1.018) prothioconazole, prothioconazole]
inhibition of growth at 0.004 ppm (Alternaria alternata; 0.004 ppm): 46% | inhibition of growth at 0.02 ppm (Alternaria alternata; 0.02 ppm): 89% | inhibition of growth at 0.1 ppm (Alternaria alternata; 0.1 ppm): 100% | inhibition of growth at 0.5 ppm (Alternaria alternata; 0.5 ppm): 99% | inhibition of growth at 0.004 ppm (Cercospora beticola [1]; [8]): 39% | inhibition of growth at 0.1 ppm (Cercospora beticola [1]; [8]): 100% | inhibition of growth at 0.5 ppm (Cercospora beticola [1]; [8]): 100% | inhibition of growth at 0.004 ppm (Cercospora beticola [1]; [9]): 30% | inhibition of growth at 0.02 ppm (Cercospora beticola [1]; Cercospora beticola, single compound, 0.02 ppm, read-out: Efficacy %): 0% | inhibition of growth at 0.1 ppm (Cercospora beticola [1]; [9]): 15% | inhibition of growth at 0.5 ppm (Cercospora beticola [1]; [9]): 0% | Efficacy % (Cercospora beticola [3]; 0.2 ppm alone): 98% | inhibition of growth at 0.008 ppm (Cercospora beticola [3]; Cercospora beticola, 0.008 ppm, read-out: Efficacy %): 6% | inhibition of growth at 0.04 ppm (Cercospora beticola [3]; Cercospora beticola, 0.04 ppm alone, read-out: Efficacy %): 22% | inhibition of growth at 0.04 ppm (Cercospora beticola [3]; Cercospora beticola, 0.04 ppm, read-out: Efficacy %): 38% | inhibition of growth at 0.2 ppm (Cercospora beticola [3]; Cercospora beticola, 0.2 ppm alone, read-out: Efficacy %): 100% | inhibition of growth at 0.2 ppm (Cercospora beticola [3]; Cercospora beticola, 0.2 ppm, read-out: Efficacy %): 100% | inhibition of growth at 1 ppm (Cercospora beticola [3]; Cercospora beticola, 1.0 ppm alone, read-out: Efficacy %): 100% | inhibition of growth at 1 ppm (Cercospora beticola [3]; Cercospora beticola, 1.0 ppm, read-out: Efficacy %): 100% | inhibition of growth at 0.008 ppm (Alternaria alternate; 0.008 ppm): 20% | inhibition of growth at 0.04 ppm (Alternaria alternate; 0.04 ppm): 15% | inhibition of growth at 0.2 ppm (Alternaria alternate; 0.2 ppm): 94% | inhibition of growth at 0.004 ppm (Colletotrichum coccodes; Colletotrichum coccodes, single active compound at 0.004 ppm, read-out: Efficacy %): 0% | inhibition of growth at 0.02 ppm (Colletotrichum coccodes; Colletotrichum coccodes, single active compound at 0.02 ppm, read-out: Efficacy %): 1% | inhibition of growth at 0.5 ppm (Colletotrichum coccodes; Colletotrichum coccodes, single active compound at 0.5 ppm, read-out: Efficacy %): 100% | inhibition of growth at 0.004 ppm (Fusarium culmorum; [10]): 6% | inhibition of growth at 0.02 ppm (Fusarium culmorum; [10]): 52% | inhibition of growth at 0.1 ppm (Fusarium culmorum; Fusarium culmorum, 0.1 ppm, alone, read-out: Efficacy): 98% | inhibition of growth at 0.004 ppm (Fusarium culmorum; [11]): 22% | inhibition of growth at 0.02 ppm (Fusarium culmorum; [11]): 22% | inhibition of growth at 0.008 ppm (Diaporthe citri; 0.008 ppm): 0% | inhibition of growth at 0.04 ppm (Diaporthe citri; 0.04 ppm): 95% | inhibition of growth at 0.2 ppm (Diaporthe citri; 0.2 ppm): 100% | inhibition of growth at 1 ppm (Diaporthe citri; 1.0 ppm): 99% | inhibition of growth at 0.008 ppm (Botrytis cinerea; Botrytis cinerea, 0.008 ppm, read-out: Efficacy %): 0% | inhibition of growth at 0.04 ppm (Botrytis cinerea; Botrytis cinerea, 0.04 ppm, read-out: Efficacy %): 48% | inhibition of growth at 0.2 ppm (Botrytis cinerea; Botrytis cinerea, 0.2 ppm, read-out: Efficacy %): 94% | inhibition of growth at 1 ppm (Botrytis cinerea; Botrytis cinerea, 1.0 ppm, read-out: Efficacy %): 100% | inhibition of growth at 0.004 ppm (Cordana musae [2]; Neocordana musae, 0.004 ppm, read-out: Efficacy): 0% | inhibition of growth at 0.1 ppm (Cordana musae [2]; Neocordana musae, 0.1 ppm, read-out: Efficacy): 81% | inhibition of growth at 0.5 ppm (Cordana musae [2]; Neocordana musae, 0.5 ppm, read-out: Efficacy): 100% | inhibition of growth at 0.04 ppm (Cordana musae [4]; 0.04 ppm): 6% | inhibition of growth at 1 ppm (Cordana musae [4]; 1.0 ppm): 100% | inhibition of growth at 0.008 ppm ([5]; 0.008 ppm): 0% | inhibition of growth at 0.04 ppm ([5]; 0.04 ppm): 20% | inhibition of growth at 0.2 ppm ([5]; 0.2 ppm): 100% | inhibition of growth at 1 ppm ([5]; 1.0 ppm): 100%

COCC(=O)N(c1c(C)cccc1C)[C@H](C)C(=O)OC [(12.004) metalaxylm]
Efficacy % (Colletotrichum coccodes; single active compound at 0.8 ppm): 40% | Efficacy % (Colletotrichum coccodes; [7]): 24% | Efficacy % (Colletotrichum coccodes; single active compound at 20 ppm): 48% | Efficacy % (Colletotrichum coccodes; single active compound at 100 ppm): 61% | Efficacy % ([6]; 0.8 ppm): 8% | Efficacy % ([6]; 100 ppm): 3%
